# According to patent US20020045780A1, “Biologically active spermidine analogues, pharmaceutical compositions and methods of treatment” (priority 1997, published 2002):
# pIC50, pKi: −log10 of the molar value. “Also recorded” adds a separate entry of the source. Structures can show the parent of a compound that is named as a salt. Where two headings read alike, the source gives them in different places.
# Tests used:
# L1210 cells [1] = assay: L1210 growth inhibition, IC50 determination; assay type: cell-based, murine
# Experimental: Murine L1210 leukemia cells (ATCC CCL 219) were maintained in logarithmic growth in RPMI-1640 medium containing 10% fetal calf serum or a semi-synthetic equivalent, NuSerum, 2% HEPES-MOPS buffer and 1 mM aminoguanidine.
# [2] = test system: ornithine decarboxylase (ODC); assay: ODC activity in treated L1210 cells; assay type: cell-based, murine; conditions: L1210, 1 μM at 4 hours
# Experimental: (§1) On the basis of these studies, it was elected to evaluate the impact of the triamines on ODC and AdoMetDC at 4 and 6 hours, respectively.
# (§2) ODC and AdoMetDC activities were determined as ^14CO2 released from [^14C]-carboxyl-labeled L-ornithine [Seely et al, “Ornithine Decarboxylase (Mouse Kidney),” Methods Enzymol., Vol. 94, pages 158-161 (1983)] or S-adenosyl-L-methionine [Pegg et al, “S-Adenosylmethionine Decarboxylase (Rat Liver),” Methods Enzymol., Vol. 94, pages 234-239 (1983)], respectively. Included in each assay were untreated L1210 cells as controls, as well as cells treated with DEHSPM, a drug having a known reproducible effect on each enzyme, as positive controls.
# [3] = test system: polyamine transport apparatus; assay: Competitive uptake determination: inhibition of [3H]spermidine transport into L1210 cells; assay type: cell-based, murine; conditions: analogue inhibition of spermidine transport
# Experimental: The ability of the norspermidines, spermidines, homospermidines, 4,5- and 5,5-triamines to compete with radiolabeled SPD for uptake was evaluated (Table 1). The general trend is that the terminally alkylated triamines have higher Ki values than the unalkylated triamines and are thus less easily taken up by the cell. […] This is not completely true with the norspermidines and the 5,5 triamines. The relationship holds with methyl and ethyl but not for the propyl of the latter two systems. Finally, the number of methylenes separating the amines plays a role in determining polyamine uptake properties. In general the effectiveness with which the analogues compete for uptake is spermidines≈homospermidines>4,5 triamines>5,5 triamines>norspermidine.
# The polyamine derivatives were studied for their ability to compete with [^3H]-SPD for uptake into L1210 cells [Bergeron et al, J. Med. Chem., Vol. 37, supra]. Lineweaver-Burk plots indicated a simple competitive inhibition with respect to SPD.
# L1210 cells [4] = assay: Polyamine pool analysis in L1210 cells; assay type: cell-based, murine; conditions: for activity at 100 µM / activity at 500 µM / activity at 15 µM / activity at 75 µM / activity at 2 µM / activity at 10 µM: Mus musculus, L1210, 48 h, % of untreated control; for Analogue: intracellular amount, 48 hours
# Experimental: The following guidelines were adopted for studying the impact of the analogues on polyamine pools (Table 2). The measurements were made after a 48-hour exposure to the analogue, and two different concentrations of analogue were evaluated in each case.
# (§3) The cells were washed twice with cold RPMI-1640, and the pellet was treated with 0.6 N HClO4 (1 ml/10^7 cells). Polyamine contents of the perchloric acid extracts were quantitated by HPLC of the DANSYL derivatives [Bergeron et al, J. Med. Chem., Vol. 37, supra].
# L1210 cells [5] = assay: Metabolic transformation of polyamine analogues by L1210 cells; assay type: in vitro ADME, murine; conditions: 48 hours
# Experimental: as §3
# [6] = test system: spermidine/spermine acetyltransferase (SSAT); assay: SSAT activity in treated L1210 cells; assay type: cell-based, murine; conditions: L1210, 10 μM at 48 hours (triamine analogues)
# From the text: Spermidine/spermine N^1-acetyltransferase activity was based on quantitation of [^14C]-N^1-acetylspermidine formed by acetylation of SPD with [^14C] acetyl coenzyme A according to the method of Libby et al [Biochem. Pharmacol., Vol. 38, supra]. Cells treated with DENSPM were positive controls.
# [7] = test system: S-adenosylmethionine decarboxylase (AdoMetDC); assay: AdoMetDC activity in treated L1210 cells; assay type: cell-based, murine; conditions: L1210, 1 μM at 6 hours
# Experimental: as §1, §2
# [8] = Mus musculus, L1210, 48 h, L1210, 48 hour exposure, read-out: IC50 48 hour
# [9] = Mus musculus, L1210, 96 h, L1210, 96 hour exposure, read-out: IC50 96 hour
Structure (SMILES),pIC50 (L1210 cells [1]; [8]),pIC50 (L1210 cells [1]; [9]),"ODC activity, percent of untreated control [2]",pKi [3],"activity at 100 µM (L1210 cells [4]; 100 μM, read-out: Put)","activity at 100 µM (L1210 cells [4]; 100 μM, read-out: Spd)","activity at 100 µM (L1210 cells [4]; 100 μM, read-out: Spm)","activity at 500 µM (L1210 cells [4]; 500 μM, read-out: Put)","activity at 500 µM (L1210 cells [4]; 500 μM, read-out: Spd)","activity at 500 µM (L1210 cells [4]; 500 μM, read-out: Spm)",Analogue (L1210 cells [4]; 100 μM),Analogue (L1210 cells [4]; 500 μM),"SSAT activity, percent of untreated control [6]","AdoMetDC activity, percent of untreated control [7]",Parent drug as % of total drug in the cell (L1210 cells [5]; 100 μM analogue),Parent drug in L1210 cells (L1210 cells [5]; 100 μM analogue),also measured
"CCNCCCNCCCNCC [DENSPD, N^1,N^7-Diethylnorspermidine Trihydrochloride]",< 4.00,5.00,80% of untreated control,3.60,0%,17%,74%,0%,6 to 15%,< 50%,3.67 nmol/10^6 cells,3.77 nmol/10^6 cells,780% of untreated control,45% of untreated control,–,–,Parent drug as % of total drug in the cell (L1210 cells [5]; 500 μM analogue): 90.7%; Parent drug in L1210 cells (L1210 cells [5]; 500 μM analogue): 3761 pmols/10^6
"CNCCCCCNCCCCCNC [DM(5,5), 2,8,14-Triazapentadecane Trihydrochloride]",4.82,6.40,105% of untreated control,3.88,–,–,–,–,–,–,–,–,90% of untreated control,97% of untreated control,–,–,"activity at 15 µM (L1210 cells [4]; 15 μM, read-out: Put): 0%; activity at 15 µM (L1210 cells [4]; 15 μM, read-out: Spd): 33%; activity at 15 µM (L1210 cells [4]; 15 μM, read-out: Spm): 115%; activity at 75 µM (L1210 cells [4]; 75 μM, read-out: Put): 0%; activity at 75 µM (L1210 cells [4]; 75 μM, read-out: Spd): 20%; activity at 75 µM (L1210 cells [4]; 75 μM, read-out: Spm): 101%; Analogue (L1210 cells [4]; 15 μM): 2.56 nmol/10^6 cells; Analogue (L1210 cells [4]; 75 μM): 3.61 nmol/10^6 cells; N-Monodealkylation (result in words) (L1210 cells [5]; 15 μM analogue): no N-demethylation; Parent drug as % of total drug in the cell (L1210 cells [5]; 15 μM analogue): 100%; Parent drug in L1210 cells (L1210 cells [5]; 15 μM analogue): 2560 pmols/10^6"
"CCCNCCCNCCCCN [MPSPD(N1), N^1-Propylspermidine Trihydrochloride]",< 4.00,4.46 to 4.70,18% of untreated control,5.52,0%,25%,90%,0%,15%,72%,3.97 nmol/10^6 cells,4.95 nmol/10^6 cells,1200% of untreated control,56% of untreated control,93.9%,4238 pmols/10^6,–
"CCCNCCCCNCCCN [MPSPD(N8), N^8-Propylspermidine Trihydrochloride]",< 4.00,4.22 to 4.30,14% of untreated control,5.07,0%,33%,103%,0%,16%,95%,3.52 nmol/10^6 cells,5.16 nmol/10^6 cells,500% of untreated control,64% of untreated control,99.3%,3549 pmols/10^6,"Elaboration to tetraamine (result in words) (L1210 cells [5]; 100 μM analogue, listed as N8-MP-[4,3], Trihydrochloride): no evidence of a tetraamine elaboration metabolite; also recorded: no elaboration of N8-Alkyl [4,3]"
"CNCCCCCNCCCCNC [DM(4,5), 2,7,13-Triazatetradecane Trihydrochloride]",5.22 to 5.70,6.92 to 6.96,56% of untreated control,4.68,–,–,–,–,–,–,–,–,130% of untreated control,71% of untreated control,–,–,"pIC50 (L1210 cells [1]; L1210, 48 hour exposure, Trihydrochloride, read-out: IC50 48 hour): 5.70; activity at 2 µM (L1210 cells [4]; 2 μM, read-out: Put): 0%; activity at 2 µM (L1210 cells [4]; 2 μM, read-out: Spd): 33%; activity at 2 µM (L1210 cells [4]; 2 μM, read-out: Spm): 112%; activity at 10 µM (L1210 cells [4]; 10 μM, read-out: Put): 0%; activity at 10 µM (L1210 cells [4]; 10 μM, read-out: Spd): 18%; activity at 10 µM (L1210 cells [4]; 10 μM, read-out: Spm): 111%; Analogue (L1210 cells [4]; 2 μM): 2.79 nmol/10^6 cells; Analogue (L1210 cells [4]; 10 μM): 5.36 nmol/10^6 cells; N-Monodealkylation (result in words) (L1210 cells [5]; 2 μM analogue): no N-demethylation; Parent drug as % of total drug in the cell (L1210 cells [5]; 2 μM analogue): 100%; Parent drug in L1210 cells (L1210 cells [5]; 2 μM analogue): 2790 pmols/10^6"
"CNCCCCNCCCNC [DMSPD, N^1,N^8-Dimethylspermidine Trihydrochloride]",< 4.00,5.74 to 5.82,–,5.29,0%,5%,58%,0%,0%,54%,4.96 nmol/10^6 cells,4.89 nmol/10^6 cells,270% of untreated control,68% of untreated control,100%,5000 pmols/10^6,"ODC activity, percent of untreated control ([2]; Trihydrochloride): 22% of untreated control; N-Monodealkylation (result in words) (L1210 cells [5]; 100 μM analogue): no N-demethylation"
